Test results reported in PubChem BioAssay AID1918948 (Molecular Pharmacology Branch, DTP, NCI, 2023).
pIC50: −log10 of the molar value. Values joined by “and” are separate entries in the source; they are usually repeats but may differ in a detail not shown here. Equal entries are not always repeated.

Test system: K-562 leukemia growth, % test/control
Assay: Anticancer human tumor K-562 cell line growth inhibition;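 note: spheroids exposed to compounds for 7 days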;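 for viability, T/C: 100% = DMSO vehicle wells and lower values mean fewer viable cells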
Details: spheroids with HUVEC and MSC; for viability, T/C: stronger effect = lower value
Excerpt: Multicellular complex tumor spheroid response to LSD1 Inhibitor Iadademstat in combination with a variety of drugs and investigational agents in selected tumor cell lines
The current study was undertaken to assess response to LSD1 inhibitors in combination with standard-of-care drugs and investigational agents in solid tumor complex spheroid models as well as in the K-562 leukemia. Complex spheroids include a stromal component modeled by human endothelial cells (HUVEC) and fibroblasts modeled by human mesenchymal stem cells (MSCs). The concentration ranges selected for each drug and investigational agent were based upon clinically achievable concentrations if the clinical Cmax of the agent was known.
Compounds. The drugs and investigational agents used in this study are listed on Table 1. All of the agents used, including staurosporine (NSC755774) and gemcitabine (NSC613327), were obtained from the Developmental Therapeutics Program, NCI. FDA-approved anticancer drugs are available from the NCI at http://dtp.nci.nih.gov/branches/dscb/oncology_drugset_explanation.html. Drugs and investigational agents were >95% pure by proton nuclear magnetic resonance (NMR) and liquid chromatography/mass spectrometry (LC/MS). Stock solutions were prepared at 400x in DMSO, stored at -70 degrees C, and diluted in fresh medium prior to their use. The final concentration of DMSO in cell culture wells never exceeded 0.25% (v/v). The FDA-approved anticancer drug set is available from the Developmental Therapeutics Program at https://dtp.cancer.gov/organization/dscb/obtaining/available_plates.htm. All drugs and investigational agents were tested over a range starting from a high concentration at or near the clinical Cmax and decreasing in half-log increments. If the clinical Cmax for an agent had not been determined, the highest concentration tested was 10 microM.
Cell Lines. The patient-derived cancer cell (PDC) lines: 292921-168-R-J2-PDC, K24384-001-R-PDC, and 521955-158-R2-J5-PDC pancreatic carcinomas, 556581-035-R-J1 ovarian carcinoma, 324938-238-R-J1-PDC, 855422-203-R-J1-PDC and 883617-216-R-J1-PDC urothelial bladder carcinomas, 743489-274-T-PDC renal cell carcinoma, 138582-R-J1 Merkel cell tumor, K60290-347-R-J1 and K57222-313-R-J1-PDC glioblastomas, 653999-131-R-J2-PDC, LG0703-F948-PDC, and 349418-098-R-PDC non-small cell lung carcinomas, 885512-296-R-J2-PDC, 171881-019-R-J1-PDC breast carcinomas and 186277-243-T-J2-PDC and 233499-124-R-J2-PDC colon carcinomas were obtained from the NCI Patient-Derived Models Repository (PDMR, https://pdmr.cancer.gov). The established cell lines NCI/ADR-RES (RRID:CVCL_14520 and OVCAR-5 (RRID:CVCL_1628) ovarian carcinomas, 786-O (RRID:CVCL_1051) and A498 (RRID:CVCL_A498) renal cell carcinoma, NCI-H211 (ATCC, cat. CRL-5824; RRID:CVCL_1529), NCI-H196 (ATCC, cat. CRL-5823, RRID:CVCL_1509), SW 1271 (ATCC, cat. CRL-2177, RRID:CVCL_1716) and NCI-H1876 (ATCC, cat. CRL-5902, RRID:CVCL_1503) small cell lung carcinomas, MDA-MB-231 (RRID:CVCL_0062) and MDA-MB-468 (RRID:CVCL_0419)breast carcinomas (10-12). Pooled donor human umbilical vein endothelial cells (HUVEC, Lonza, cat. CC-2519) and human mesenchymal stem cells (hMSC, Lonza, cat. PT-2501) were purchased from Lonza (Walkersville, MD).
Cell Culture. All cells were maintained in an incubator at 37 degrees C and 5% CO2 with 95% humidity. The PDC lines were cultured according to standard operating procedures established by the NCI PDMR (https://pdmr.cancer.gov). Briefly all PDCs were thawed and cultured in Matrigel-coated flasks prepared with a working solution of 1X Ham's F-12 nutrient mix, without supplementation (Invitrogen, Waltham, MA, cat. 11765054), 100 U/mL penicillin-streptomycin (Invitrogen, cat. 15140122), and 2.5% Matrigel (Corning Inc., Corning, NY, cat. 354248) for the first three passages. […]

SMILES | viability, T/C (compound 0.0316 µM) | viability, T/C (compound 0.1 µM) | viability, T/C (compound 0.316 µM) | viability, T/C (compound 1 µM) | viability, T/C (compound 3.16 µM) | viability, T/C (compound 10 µM) | pIC50 (curve of compound) | viability, T/C (compound 0.00949 µM) | viability, T/C (compound 0.03 µM) | viability, T/C (compound 0.0949 µM) | viability, T/C (compound 0.3 µM) | also measured
COc1ccc([C@@H](O)c2cc(-c3ncnc4cc(N5CCOCC5)ccc34)c(F)cc2Cl)nn1 | 100% and 102% | 104% and 98.7% | 97% and 95.4% | 96.4% and 97% | 104% and 99.9% | 40% and 38.6% | 5.08 and 5.10 | – | – | – | – | –
Cn1ncnc1C1c2n[nH]c(=O)c3cc(F)cc(c23)NC1c1ccc(F)cc1 (stereo not given) | 99.4% and 102% | 96.7% and 97.5% | – | – | – | – | < 7.00 | – | – | – | – | viability, T/C (compound 0.000316 µM): 104% and 106%; viability, T/C (compound 0.001 µM): 95.2% and 105%; viability, T/C (compound 0.00316 µM): 98.8% and 96.9%; viability, T/C (compound 0.01 µM): 98.7% and 102%
NC1CC1c1ccc(-c2cccc(O)c2)cc1 (stereo not given) | – | 109% | 104% [middle of 25 runs] | 99.9% [middle of 25 runs] | 100% [middle of 24 runs] | 98.8% [middle of 25 runs] | – | – | – | – | – | pIC50 (compound alone, run of 02/01/2022): < 5.00
NC1CCC(NC2CC2c2ccccc2)CC1 (stereo not given) | – | 99% [middle of 24 runs] | 100% and 101% and 98.9% | 103% [middle of 25 runs] | 103% [middle of 25 runs] | 100% [middle of 23 runs] | – | – | – | – | – | pIC50 (compound alone, run of 01/18/2022): < 5.00
NS(=O)(=O)OCC1CC(n2ccc3c(NC4CCc5ccccc54)ncnc32)CC1O (stereo not given) | – | – | – | – | – | – | 7.32 and > 8.02 | 65.6% and 51.5% | 47% and 34.4% | 49.3% and 36.1% | 34.9% and 20.1% | viability, T/C (compound 0.949 µM): 18% and 13.5%; viability, T/C (compound 3 µM): 11.5% and 4.24%
Nc1ccccc1NC(=O)c1ccc(CNC(=O)OCc2cccnc2)cc1 | – | – | – | – | – | – | 6.35 and 6.73 | 107% and 112% | 101% and 110% | 103% and 106% | 74.6% and 11.2% | viability, T/C (compound 0.949 µM): 4.47% and 0.45%; viability, T/C (compound 3 µM): 0.26% and 0.16%
Nc1ccn(C2OC(CO)C(O)C2(F)F)c(=O)n1 (stereo not given) | – | – | – | – | – | – | – | 14.6% and 51.5% | 13.6% and 21% | 15.1% and 19.3% | 13.9% and 16.9% | viability, T/C (compound 0.000949 µM): 45.4% and 98.6%; viability, T/C (compound 0.003 µM): 18.2% and 91.7%
Nc1ncn(C2CC(O)C(CO)O2)c(=O)n1 (stereo not given) | 88.5% and 96.1% | 79.7% and 89.2% | 72.3% and 74.6% | 67.1% and 75.9% | – | – | < 6.00 | – | – | – | – | viability, T/C (compound 0.00316 µM): 94.7% and 99.7%; viability, T/C (compound 0.01 µM): 93.9% and 96.9%
Nc1ncn(C2CC(O)C(CO)S2)c(=O)n1 (stereo not given) | – | – | – | – | – | – | 6.73 and 6.97 | 109% and 105% | 94.4% and 87.5% | 67.2% and 53.8% | 37.7% and 19.5% | viability, T/C (compound 0.000949 µM): 111% and 100%; viability, T/C (compound 0.003 µM): 109% and 106%
O=C(C=Cc1cccc(S(=O)(=O)Nc2ccccc2)c1)NO | – | – | – | – | – | – | 6.32 and 6.63 | 100% and 96% | 98.5% and 97.4% | 101% and 98.3% | 83.7% and 5.37% | viability, T/C (compound 0.949 µM): 2.11% and 0.8%
O=C(C=Cn1cnc(-c2cc(C(F)(F)F)cc(C(F)(F)F)c2)n1)NNc1cnccn1 | 92.1% and 101% | 37.1% and 58.4% | 4.12% and 9.78% | 1.22% and 1.15% | – | – | 7.12 and 6.91 | – | – | – | – | viability, T/C (compound 0.00316 µM): 102% and 101%; viability, T/C (compound 0.01 µM): 103%
O=C(c1cc(Cc2n[nH]c(=O)c3ccccc23)ccc1F)N1CCN(C(=O)C2CC2)CC1 | 97% and 101% | 99.8% and 101% | 99% and 103% | 97.1% and 101% | 88.5% and 94.2% | 48.1% and 50.1% | 5.02 and < 5.00 | – | – | – | – | –
